Read-outs that look alike come from different tables or passages of the source.
Assay: Metabolic stability and intrinsic clearance in human liver microsomes (MICS)
Assay type: in vitro ADME
Settings: pH 7.4
Summary of the method: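 Parent depletion by LC-MS/MS, run in duplicate, gave in vitro t1/2 from the slope of ln(% remaining) versus time, converted to CLint (μL/min/mg protein). Incubations: 1 μM compound, microsomes at 0.5 mg/mL, pH 7.4 phosphate, 37° C, ±1 mM NADPH, timepoints 0.5, 5, 15, 30, 60 min.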

Row | microsomal CLint at 1 μM (human, microsomes) [µL/min/mg] | Compound | microsomal CLint at 1 μM (human liver microsomes 0.5 mg/mL, 1 μM compound, read-out: intrinsic clearance in human MICS) [µL/min/mg]
1 | < 50 | CC(=O)Nc1ccc(-c2oc3c([C@@H](C)Oc4ccc(Cl)nc4C(N)=O)cc(C)cc3c(=O)c2C)cc1 [Example 58C, 3-[(1R)-1-[2-(4-Acetamidophenyl)-3,6-dimethyl-4-oxo-chromen-8-yl]ethoxy]-6-chloro-pyridine-2-carboxamide] | 
2 | < 50 | Cc1cc([C@@H](C)Oc2ccc(Br)nc2C(N)=O)c2oc(-c3ccc4nn(C)cc4c3)c(C)c(=O)c2c1 [Example 81C, 6-Bromo-3-[(1R)-1-[3,6-dimethyl-2-(2-methylindazol-5-yl)-4-oxo-chromen-8-yl]ethoxy]pyridine-2-carboxamide] | 

More lines, now with the values behind:

Row | Compound | microsomal CLint at 1 μM (human, microsomes) [µL/min/mg] | microsomal CLint at 1 μM (human liver microsomes 0.5 mg/mL, 1 μM compound, read-out: intrinsic clearance in human MICS) [µL/min/mg]
3 | Cc1cc([C@@H](C)Oc2ccc(Cl)nc2C(N)=O)c2oc(-c3cc(F)c4nn(C)cc4c3)c(C)c(=O)c2c1 [Example 17B, 6-Chloro-3-[(1R)-1-[2-(7-fluoro-2-methyl-indazol-5-yl)-3,6-dimethyl-4-oxo-chromen-8-yl]ethoxy]pyridine-2-carboxamide] | < 50 | 
4 | Cc1cc([C@@H](C)Oc2ccc(Cl)nc2-c2noc(=O)[nH]2)c2oc(-c3ccc4c(c3)OC(F)(F)O4)c(C)c(=O)c2c1 [Example 46A, 3-[6-Chloro-3-[(1R)-1-[2-(2,2-difluoro-1,3-benzodioxol-5-yl)-3,6-dimethyl-4-oxo-chromen-8-yl]ethoxy]-2-pyridyl]-4H-1,2,4-oxadiazol-5-one] | < 50 | 
5 | Cc1cc([C@@H](C)Oc2ccc(Cl)nc2NS(C)(=O)=O)c2oc(-c3cnn(C)c3)c(C)c(=O)c2c1 [Example 149A, N-[6-Chloro-3-[(1R)-1-[3,6-dimethyl-2-(1-methylpyrazol-4-yl)-4-oxo-chromen-8-yl]ethoxy]-2-pyridyl]methanesulfonamide] |  | < 50

— patent publication US20240182460A1, “ALLOSTERIC CHROMENONE INHIBITORS OF PHOSPHOINOSITIDE 3-KINASE (PI3K) FOR THE TREATMENT OF DISEASE” (PETRA PHARMA CORPORATION, priority 2022, published 2024)
